The text below walks through data of ChEMBL document CHEMBL6127124, “Structure-Activity Relationships and Discovery of (S)-5-(tert-Butyl)-11-(difluoromethoxy)-9-methoxy-2-oxo-1,2,5,6-tetrahydropyrido[2',1':2,3]imidazo[4,5-h]quinoline-3-carboxylic Acid (AB-161), a Novel Orally Available and Liver-Centric HBV RNA Destabilizer” (J Med Chem, 2024).

Data set [1] is described as follows: Drug concentration in Sprague-Dawley rat plasma at 10 mg/kg, po measured for 24 hrs by LC-MS/MS analysis. It is filed as ADME, organism-based. As to conditions: read-out: Ct.
The test system of the next data set is RNA. The data set is described as follows: Destabilization of HBV RNA assessed as decrease in HBsAg production by cell-based assay. As to conditions: Hepatitis B virus.
Data set [2] can be described thus: Toxicity in Beagle dog assessed as uncoordinated movements at 15 mg/kg, po qd measured after 14 days. As to conditions: in vivo, 336 h, time 14 day. Format: organism-based, Canis lupus familiaris.
Data set [3] in a line: Total Cmax in Beagle dog at 5 mg/kg, po qd measured after 91 days. Format: ADME, organism-based, Canis lupus familiaris. The note with it: in vivo, time 91 day.
Data set [4] in a line: Chemical stability of compound in PBS assessed as compound remaining measured after 6 days by HPLC UV analysis. It is filed as physicochemical. The note with it: buffer, 144 h; time 6 day.
Data set [5] relates to Hepatitis B virus. As to the kind of experiment: In vivo destabilization of HBV RNA in immuno-competent mouse model of chronic HBV assessed as log10 reduction in HBV DNA. Format: functional.
A short description of data set [6]: Total AUC (0 to 24 hrs) in Beagle dog at 45 mg/kg, po qd measured after 91 days. Format: ADME, organism-based, Canis lupus familiaris. The note with it: in vivo, time 91 day.
A further data set has as its target CYP2D6 (Homo sapiens, UniProt P10635). As to the kind of experiment: Inhibition of CYP2D6 in human liver microsomes using dextromethorphan as substrate preincubated for 30 min followed by NADPH addition measured after 12 mins by LC-MS/MS analysis. It is filed as ADME, Microsome. The note with it: human, liver microsomes, probe dextromethorphan.
The nature of data set [7]: Free Cmax in Beagle dog at 15 mg/kg, po qd measured after 91 days. The note with it: in vivo, 2184 h, time 91 day. Format: ADME, organism-based, Canis lupus familiaris.
The nature of data set [8]: Total AUC (0 to 24 hrs) in Beagle dog at 60 mg/kg, po qd measured after 91 days. Format: ADME, organism-based, Canis lupus familiaris. As to conditions: in vivo, time 91 day.
The nature of data set [9]: Oral bioavailability in CD-1 mouse at 10 mg/kg measured for 24 hrs by LC-MS/MS analysis. As to conditions: in vivo. Format: ADME, organism-based.
Data set [10] is described as follows: Free AUC (0 to 24 hrs) in Beagle dog at 15 mg/kg, po qd measured after 91 days. It is filed as ADME, organism-based, Canis lupus familiaris. The note with it: in vivo, 2184 h, time 91 day.
A short description of data set [11]: Selectivity ratio of drug concentration in liver in Sprague-Dawley rat at 10 mg/kg, po measured for 24 hrs to EC90 for antiviral activity against HBV infected in human HepG2.2.15 cells assessed as reduction in HBsAg level. As to conditions: in vivo. Format: ADME, organism-based.
The nature of data set [12]: Toxicity in Beagle dog assessed as sporadic splayed limbs at 5 to 15 mg/kg, po qd measured after 38 days. The note with it: in vivo, 912 h, dose 5-15 mg/kg, time 38 day. It is filed as organism-based, Canis lupus familiaris.
A short description of data set [13]: Free Cmax in Beagle dog at 5 mg/kg, po qd measured after 91 days. It is filed as ADME, organism-based, Canis lupus familiaris. The note with it: in vivo, 2184 h, time 91 day.
A further data set addresses CYP2C9 (Homo sapiens, UniProt P11712). As to the kind of experiment: Inhibition of CYP2C9 in human liver microsomes using diclofenac as substrate preincubated for 30 min followed by NADPH addition measured after 12 mins by LC-MS/MS analysis. It is filed as ADME, Microsome. As to conditions: human, liver microsomes, probe diclofenac.
For a further data set, the target named is T1, CYP1A2 (Homo sapiens, UniProt P05177).
T1 sequence (P05177 whole entry): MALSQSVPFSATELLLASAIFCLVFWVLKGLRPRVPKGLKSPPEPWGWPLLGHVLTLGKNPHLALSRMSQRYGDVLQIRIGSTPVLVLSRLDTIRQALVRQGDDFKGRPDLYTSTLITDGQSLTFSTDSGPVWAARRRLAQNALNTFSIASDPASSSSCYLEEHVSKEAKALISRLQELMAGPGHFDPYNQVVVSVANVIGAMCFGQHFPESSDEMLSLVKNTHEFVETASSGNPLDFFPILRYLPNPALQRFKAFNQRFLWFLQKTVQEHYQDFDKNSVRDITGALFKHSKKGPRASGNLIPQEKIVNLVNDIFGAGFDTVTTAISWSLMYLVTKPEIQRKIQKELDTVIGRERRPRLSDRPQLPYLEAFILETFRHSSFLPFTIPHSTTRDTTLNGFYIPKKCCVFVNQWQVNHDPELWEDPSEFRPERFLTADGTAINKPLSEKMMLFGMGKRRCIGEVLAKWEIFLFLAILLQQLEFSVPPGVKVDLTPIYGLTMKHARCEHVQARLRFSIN
As to the kind of experiment: Inhibition of CYP1A2 in human liver microsomes using phenacetin as substrate preincubated for 30 min followed by NADPH addition measured after 12 mins by LC-MS/MS analysis. As to conditions: human, liver microsomes, probe phenacetin. It is filed as ADME, Microsome.

The subject of data set [14] is Hepatitis B virus. As to the kind of experiment: Antiviral activity against HBV infected in human primary hepatocytes assessed as reduction in HBV DNA production pre-infected cells with virus followed by inoculum removal and subsequent addition of compounds with replenishment on days 4,7,9,11 and 14 post-infection measured after 16 days. Format: functional, organism-based. The note with it: Hepatocyte, 384 h.

Data set [15] in a line: Toxicity in male Beagle dog assessed as fold decrease in total protein level at 15 mg/kg, po qd measured for 60 days. Format: organism-based, Canis lupus familiaris. More on the design: scale not given: the % may be the effect or the level left. As to conditions: in vivo, 1440 h, time 60 day.
A short description of data set [16]: Toxicity in female Beagle dog assessed as change in body weight at 15 to 45 mg/kg, po qd measured for 60 days. As to conditions: in vivo, 1440 h, dose 15-45 mg/kg, time 60 day. Format: organism-based, Canis lupus familiaris.
Data set [17] can be described thus: Toxicity in female Beagle dog assessed as fold decrease in calcium level at 15 to 45 mg/kg, po qd measured for 60 days. Format: organism-based, Canis lupus familiaris. More on the design: scale not given: the % may be the effect or the level left. As to conditions: in vivo, 1440 h, dose 15-45 mg/kg, time 60 day.
The test system of data set [18] is Hepatitis B virus. The data set is described as follows: Antiviral activity against HBV infected in human primary hepatocytes assessed as reduction in HBsAg production pre-infected cells with virus followed by inoculum removal and subsequent addition of compounds with replenishment on days 4,7,9,11 and 14 post-infection measured after 16 days. It is filed as functional, organism-based. As to conditions: Hepatocyte, 384 h.

For data set [19], the target named is Voltage-gated inwardly rectifying potassium channel KCNH2 (Homo sapiens, UniProt Q12809). As to the kind of experiment: Inhibition of hERG. Format: toxicity.
Chain of Voltage-gated inwardly rectifying potassium channel KCNH2 (Q12809 whole entry): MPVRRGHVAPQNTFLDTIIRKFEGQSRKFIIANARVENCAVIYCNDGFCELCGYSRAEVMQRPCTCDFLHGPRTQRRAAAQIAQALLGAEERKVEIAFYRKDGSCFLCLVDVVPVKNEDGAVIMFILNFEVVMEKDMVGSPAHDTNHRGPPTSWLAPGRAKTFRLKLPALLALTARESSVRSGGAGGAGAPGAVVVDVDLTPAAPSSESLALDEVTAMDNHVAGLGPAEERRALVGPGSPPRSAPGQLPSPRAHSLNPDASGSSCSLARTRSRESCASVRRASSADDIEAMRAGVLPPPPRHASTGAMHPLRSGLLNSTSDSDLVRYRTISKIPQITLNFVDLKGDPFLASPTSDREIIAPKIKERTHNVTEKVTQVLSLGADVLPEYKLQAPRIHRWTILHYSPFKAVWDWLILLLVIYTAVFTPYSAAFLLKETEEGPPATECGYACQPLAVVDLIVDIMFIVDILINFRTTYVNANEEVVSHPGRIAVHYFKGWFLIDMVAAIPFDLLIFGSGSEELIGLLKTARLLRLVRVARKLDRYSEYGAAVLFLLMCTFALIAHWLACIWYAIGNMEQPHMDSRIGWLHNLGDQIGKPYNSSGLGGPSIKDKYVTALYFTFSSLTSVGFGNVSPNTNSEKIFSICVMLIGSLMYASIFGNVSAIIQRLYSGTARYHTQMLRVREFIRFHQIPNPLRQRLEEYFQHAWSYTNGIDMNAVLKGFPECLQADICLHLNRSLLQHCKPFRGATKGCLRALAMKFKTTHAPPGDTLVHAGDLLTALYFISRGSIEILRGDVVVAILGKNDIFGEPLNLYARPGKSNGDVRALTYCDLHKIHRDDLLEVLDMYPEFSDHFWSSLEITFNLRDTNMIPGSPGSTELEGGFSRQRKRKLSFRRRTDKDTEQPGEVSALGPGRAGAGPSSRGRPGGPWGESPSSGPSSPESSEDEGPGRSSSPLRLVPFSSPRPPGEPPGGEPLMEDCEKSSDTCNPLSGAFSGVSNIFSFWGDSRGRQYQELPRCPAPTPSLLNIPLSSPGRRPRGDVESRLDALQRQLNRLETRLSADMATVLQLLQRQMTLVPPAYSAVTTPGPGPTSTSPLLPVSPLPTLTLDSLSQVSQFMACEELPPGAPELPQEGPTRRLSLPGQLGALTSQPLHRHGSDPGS
Data set [20] deals with Hepatitis B virus. As to the kind of experiment: Antiviral activity against HBV infected in human primary hepatocytes assessed as reduction in HBeAg production pre-infected cells with virus followed by inoculum removal and subsequent addition of compounds with replenishment on days 4,7,9,11 and 14 post-infection measured after 16 days. It is filed as functional, organism-based. As to conditions: Hepatocyte, 384 h.

The nature of data set [21]: Toxicity in male Beagle dog assessed as decrease in body weight at 15 to 45 mg/kg, po qd measured for 60 days. It is filed as organism-based, Canis lupus familiaris. On the set-up: scale not given: the % may be the effect or the level left. As to conditions: in vivo, 1440 h, dose 15-45 mg/kg, time 60 day.
Data set [22] is described as follows: Toxicity in female Beagle dog assessed as decrease in total protein level at 15 to 45 mg/kg, po qd measured for 60 days. Format: organism-based, Canis lupus familiaris. More on the design: scale not given: the % may be the effect or the level left. As to conditions: in vivo, 1440 h, dose 15-45 mg/kg, time 60 day.

Bounds are passed on as bounds.

Chain of CYP2C9 (P11712 whole entry): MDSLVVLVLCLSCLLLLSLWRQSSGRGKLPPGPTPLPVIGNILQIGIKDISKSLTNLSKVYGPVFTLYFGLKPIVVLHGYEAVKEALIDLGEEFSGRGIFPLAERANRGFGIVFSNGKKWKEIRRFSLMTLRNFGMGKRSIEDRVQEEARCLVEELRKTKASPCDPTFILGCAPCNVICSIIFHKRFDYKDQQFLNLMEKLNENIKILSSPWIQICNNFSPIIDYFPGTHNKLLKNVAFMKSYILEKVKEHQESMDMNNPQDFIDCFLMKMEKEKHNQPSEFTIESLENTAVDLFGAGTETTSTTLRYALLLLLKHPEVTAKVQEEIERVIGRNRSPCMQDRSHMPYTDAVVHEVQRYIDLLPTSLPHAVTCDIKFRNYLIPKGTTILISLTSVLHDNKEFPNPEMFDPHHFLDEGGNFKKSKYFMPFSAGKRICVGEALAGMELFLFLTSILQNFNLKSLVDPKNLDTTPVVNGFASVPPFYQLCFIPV
Chain of CYP2D6 (P10635 whole entry): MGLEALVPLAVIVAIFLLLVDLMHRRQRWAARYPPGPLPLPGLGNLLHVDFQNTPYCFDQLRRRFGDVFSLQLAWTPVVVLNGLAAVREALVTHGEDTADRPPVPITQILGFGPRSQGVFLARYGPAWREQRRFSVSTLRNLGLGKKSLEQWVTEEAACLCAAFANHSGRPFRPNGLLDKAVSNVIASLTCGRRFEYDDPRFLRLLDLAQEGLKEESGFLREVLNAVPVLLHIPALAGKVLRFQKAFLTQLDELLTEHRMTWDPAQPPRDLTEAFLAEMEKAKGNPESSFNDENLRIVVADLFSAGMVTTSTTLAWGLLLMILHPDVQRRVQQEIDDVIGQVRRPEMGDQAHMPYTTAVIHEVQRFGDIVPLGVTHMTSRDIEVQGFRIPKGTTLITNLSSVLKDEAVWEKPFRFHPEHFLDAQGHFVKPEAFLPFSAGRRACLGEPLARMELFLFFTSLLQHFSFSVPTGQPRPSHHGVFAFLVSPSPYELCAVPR

As to `COCCCOc1cc2c(nc1OC)-c1cc(=O)c(C(=O)O)cn1[C@H](C(C)C)C2`, the concentration at 24 h in data set [1] is 28.2 ng/g. In addition, the EC50 in the data set with RNA turned out to be 1.4 nM. The Activity entry in data set [2] and in data set [12] was “Toxic” in each case. In data set [3], the maximum concentration (Cmax) amounted to 4680 ng/mL. Further, in data set [4], the Stability entry is “Stable”. Moreover, in the data set with Hepatitis B virus [5], the “log(activity)” value is listed as “<=0.94”. For the same molecule, the results for the AUC at 2184 h in data set [6] and in data set [8] were 95200 ng·h/mL and 128000 ng·h/mL, respectively. The IC50 at 12 min against CYP2D6, at CYP2C9 and on CYP1A2 was above 25000 nM throughout. The fCmax in [7] came out at 4270 ng/mL; in [13] it was 1740 ng/mL. In addition, in [9], the bioavailability turned out to be 112%. The molecule also returned a fAUC in data set [10] of 11400 ng·h/mL. Further, in [11], the Ratio is 5.

Consider `COc1cc(OC(F)F)c2nc3c(n2c1)C[C@@H](C(C)(C)C)c1cc(C(=O)O)c(=O)[nH]c1-3`, for which the EC50 with Hepatitis B virus [14], in the data set with Hepatitis B virus [18] and with Hepatitis B virus [20] was 8.5 nM in each case. The Activity in data set [15] was below 20%; in [16], “Non-Toxic”; in data set [17], below 10%; in data set [21], below 15%; in data set [22], below 15%. Besides, in [19], the IC50 is above 30000 nM.
